Paper PMC4841536, “Characterization of the Anti-HCV Activities of the New Cyclophilin Inhibitor STG-175” (PLoS ONE, 2016)
Read-outs that look alike come from different tables or passages of the source.

Experiments:
[1] = test system: HCV GT1a subgenomic replicon H77 RLucP; assay: Luciferase reporter replicon antiviral assay, GT1a; format: cell-based; details: Hepatitis C virus
Protocol: (§1) The anti-HCV activity of STG-175 was conducted using a panel of luciferase reporter replicon cell lines including GT1a, GT1b, GT2a, GT3a and GT4a as we described previously. The GT1a subgenomic renilla luciferase reporter replicon H77 RLucP (7) was supplied by Dr. Delaney. The GT1b subgenomic firefly luciferase reporter replicon pFK-I389/NS3-3’ [29] was supplied by Dr. Bartenschlager. The GT1B subgenomic NS3, NS5A and NS5B mutants were created via homologous recombination using the In-Fusion HD Cloning kit (Clontech) as we described previously. The GT2a genomic luciferase reporter replicon Luc-Neo-JFH-1 was generated as previously. The plasmid pFK-Luc-JFH1 was supplied from Drs. […] The CellTiter-Fluor™ Cell Viability Assay is a non-lytic fluorescence assay, which measures the number of live cells. […] Luciferase activity was determined using the Luciferase Assay System (Promega) in a Berthold luminometer. […] Viable cells continuously convert resazurin to resorufin, increasing the overall fluorescence and color of the media surrounding cells.
(§2) Fig 2 Anti-HCV activities of STG-175 among GTs. […] Luciferase activity was determined using the Luciferase Assay System in a Berthold luminometer. […] Data are expressed as mean of relative light units and calculated EC50s are presented. […]

[2] = test system: Con1 (GT1b) replicon colonies A, B, C (D320E NS5A); assay: microbe, parasite or virus in culture; format: cell-based, hepatitis C virus; details: for EC50: Hepatitis C virus, GT1B
Protocol: (§3) Huh-7 cells expressing subgenomic Con1 (GT1b) replicon were incubated with STG-175 and 100 μg/ml of G418 in 10 cm CellBIND™ plates (Corning). Cells were split every 3 days at 1:6 and G418 concentration was increased sequentially to 200 and 300 μg/mL. […] At this point, medium was changed every 3–4 days until emergence of resistant clones. Clones were individually transferred to 24-well CellBIND using cloning disks. […] Each clone was split in 2 identical plates and was separately maintained under 0.5 or 1.0 μM STG-175 and 100 μg/mL of G418. Once the colonies were established, G418 concentration was increased to 300 μg/mL. […] Briefly, total RNA was prepared using the RNeasy Plus Mini Kit as per manufacturer’s recommendation. Two hundred ng of total RNA was used for cDNA production using primers specific to the NS3-NS5B region or oligo(dT)18 using AccuScript High Fidelity 1st Strand cDNA Synthesis Kit (Stratagene). Amplicons were generated using primers defining the sequence at its 5’ and 3’ ends. The amplicons were gel purified, quantitated and sequenced using primers located internally in NS5A or NS5B reading to the 5’ and 3’ ends. Sequences were assembled and analyzed using the ClustalW algorithm within the MacVector program. The sequencing was conducted twice to ensure the authenticity of the nucleotide substitutions.
(§4) Fig 3 Replicon clearance, replication rebound and resistance analyses. […] Then drugs were removed to allow viral replication rebound to occur. At each passage, samples of cells were collected, RNA extracted and analyzed by RT-PCR for HCV RNA levels. B. Emergence of resistance: Con1 replicon Huh-7 cells were passaged 22 times in the absence or presence of STG-175 or selected DAAs. At each passage, sample of cells were collected, RNA extracted and analyzed by RT-PCR for HCV RNA levels. C. […] Data are expressed as number of HCV RNA copies per cell. […] Data are expressed as mean of relative light units and calculated EC50s are presented. […] E. Degree of resistance of D320E and Y321N Con1 variants: Left panel. Wild-type (WT), D320E and D320/Y321N NS5A Con1 RNA were electroporated into Huh7.5.1 cells and replication monitored over 8 days by quantifying the levels of intracellular HCV RNA. Right panel. Same as just above except that increasing concentrations of STG-175 were added at the time of the electroporation. […] STG-175 is taken as the substance from the printed x-axis title 'STG-175 in Log nM'.
(§5) We then sequenced the NS3-NS5B region of the HCV variants (colonies), which emerged after multiple passages under STG-175 selection. […] The five STG-175-resistant variants (5 colonies A to E) were then retested for STG-175 resistance by exposing them to increasing concentrations of STG-175 as we described previously.

[3] = test system: Con1 (GT1b) replicon colonies D, E (D320E/Y321N NS5A); assay: microbe, parasite or virus in culture; format: cell-based, hepatitis C virus; details: for EC50: Hepatitis C virus, GT1B
Protocol: as §3, §4, §5

[4] = alamarBlue cytotoxicity (CC50), GT4a replicon cell line; details: human
Protocol: as §1, §2

CC=CCC(C)C(O)C1C(=O)NC(CC)C(=O)N(C)C(CSCCCCO)C(=O)N(C)C(CC(C)(C)O)C(=O)NC(C(C)C)C(=O)N(C)C(CC(C)C)C(=O)NC(C)C(=O)NC(C)C(=O)N(C)C(CC(C)C)C(=O)N(C)C(CC(C)C)C(=O)N(C)C(C(C)C)C(=O)N1C (centres unmarked) [STG-175]
EC50 ([1]; 72 h post-drug addition, luciferase, read-out: EC50 GT1a): 0.0135 µM | EC50 ([1]; Fig 2D table, unit inferred, read-out: EC50 GT1a (Fig 2D)): 0.0135 µM | average fold higher resistance than wild-type colonies, colonies A, B and C [2]: 10 fold | enhancement of resistance compared to wild-type replicon, colony A [2]: 7.2 fold | enhancement of resistance compared to wild-type replicon, colony B [2]: 7.8 fold | enhancement of resistance compared to wild-type replicon, colony C [2]: 15.1 fold | EC50 ([2]; read-out: EC50, colony A (Clone A)): 0.114 µM | EC50 ([2]; read-out: EC50, colony B (Clone B)): 0.122 µM | EC50 ([2]; read-out: EC50, colony C (Clone C)): 0.238 µM | EC50 ([2]; read-out: average EC50, colonies A, B and C): 0.158 µM | average fold higher resistance than wild-type colonies, colonies D and E [3]: 33.8 fold | enhancement of resistance compared to wild-type replicon, colony D [3]: 48.8 fold | enhancement of resistance compared to wild-type replicon, colony E [3]: 18.9 fold | EC50 ([3]; read-out: EC50, colony D (Clone D)): 0.767 µM | EC50 ([3]; read-out: EC50, colony E (Clone E)): 0.297 µM | EC50 ([3]; read-out: average EC50, colonies D and E): 0.531 µM | CC50 at 72 h [4]: > 10 µM
